Source: article PMC10666548, “Identification of the bacterial metabolite aerugine as potential trigger of human dopaminergic neurodegeneration” (Environment international, 2023)
Entries after “also recorded” stand apart in the source; their conditions may differ.

What was measured:
[1] = Cytotoxicity to proliferating (d0) LUHMES cells, calcein-AM & H-33342 imaging; assay type: cell-based; details: human, proliferating LUHMES d0, 24 h exposure, read-out: EC50 (half-maximal cytotoxic potency), cell viability
Description: LUHMES cells were cultivated as described previously ([Krug et al., 2013]; [Schildknecht et al., 2013]; [Scholz et al., 2011]). In brief, cells were grown in standard cell culture flasks pre-coated with 50 μg/ml PLO and 1 μg/ml fibronectin in water for at least 3 h at 37 °C. The maintenance culture was kept in proliferation medium consisting of advanced DMEM/F12 with 2 mM L-glutamine, 1x N2-supplement, and 40 ng/ml FGF-2. The cells were incubated at 37 °C with 5% CO2 and passaged trice a week when reaching 75–90% confluence. They were used up to passage 18. […]
Neurite area (NA) and viability (V) were assessed as described previously ([Stiegler et al., 2011]). […] Image acquisition was performed using an Array-Scan VTI HCS Reader (Cellomics, PA, USA) equipped with a Hamamatsu ORCA-ER camera. […]
Nuclei were identified in channel 1 depending on intensity, area, size and shape. […] The NA was automatically calculated by excluding the VCSAs from the VCSs. […]
Fig. 3. […] The cell viability was assessed 24 h later by calcein-AM & H-33342 staining and high content imaging. […] The overall cell viability was assessed by measuring resazurin reduction in technical triplicates. […] The cell viability was assessed 24 h later by calcein-AM & H-33342 staining and high content imaging. […]

[2] = system: dopamine neurons of C. elegans BY200; test: C. elegans dopaminergic neurodegeneration scoring (GFP-labelled neurons); assay type: in vivo, Caenorhabditis elegans; details: 48 h exposure
Description: The strain BY200 Pdat-1::gfp (vtIs1), dat-1::GFP(vtls1) was kindly provided by the Blakely laboratory, Vanderbilt University Medical Center and the strain Punc-25:GFP was obtained from the Caenorhabditis Genetics Center (CGC, University of Minnesota, Minneapolis, MN, USA). The worms were maintained in nematode growth medium (NGM) plates that contain: 3 g/l NaCl, 17 g/l agar, 2.5 g/l peptone, 1 mM CaCl2, 5 mg/l cholesterol, 1 mM MgSO4, 25 mM potassium phosphate buffer (pH 6.0) with 1.25 ml nystatin and 50 mg/l streptomycin sulfate) and Escherichia coli (E. coli) OP50 strain was used as food ([Brenner, 1974]). […]
On day 2 and day 8, approximately, 20–30 worms per treatment were picked onto slides prepped with a 3% agarose pad, anesthetized with 5 μl of 3 mM levamisole hydrochloride ([Sulston et al., 1975]) and observed under an Olympus BX41 fluorescence microscope to determine morphology status according to novel Likert-like scale of degeneration as previously described ([Benedetto et al., 2010]).
Fig. 5. […] They were exposed to different aerugine concentrations and counted every 24 h. […] Differences on a given day were analyzed by ANOVA and found to be non-significant. […] The GFP-labelled neurons of 20–30 worms per condition were analyzed and scored for specific neurodegeneration. […] These scores were assessed to quantify the dopaminergic neurodegeneration caused be aerugine in vivo. […]

[3] = system: 5HT2B receptor; parameters: method as in Lin et al., 2017; details: ref Lin et al., 2017; cited from earlier work

Structure (SMILES): OCC1CSC(c2ccccc2O)=N1 (stereo not shown) [aerugine, 2-[4-(hydroxymethyl)-4,5-dihydro-1,3-thiazol-2-yl]phenol]
- EC50 at 24 h [1]: 13 ± 0.2 µM
- DAergic neurons that lost their normal (fully) healthy phenotype [2]: Up to 50%
- degeneration of DA neurons ([2]; L4 worms): concentration-dependent degeneration of DA neurons; also recorded: specific neurodegeneration was observed
- displacement of radioactive lysergic acid diethylamide [3]: displaced radioactive lysergic acid diethylamide at low μM concentrations
